In patent US20150366890A1, “COMPOSITIONS AND METHODS FOR TREATING FUNGAL INFECTIONS” (TRUSTEES OF BOSTON UNIVERSITY, priority 2013, published 2015):
Where two headings read alike, the source gives them in different places.

Assays:
Assay type in all cases: cell-based
[1] = tested on: S. cerevisiae wildtype and deletion strains
[2] = tested on: C. albicans wildtype and DNA repair mutants; assay: Fungicidal killing, CFU assay; conditions: C. albicans rad50/rad50 and rad52/rad52, 3 hours of drug exposure
Description: Overnight yeast cultures were diluted into the indicated media and grown to an OD600 of 0.2, at which point the AFs were added. Colony forming units (CFU) were measured by plating six serial dilutions onto YPD agar plates.
(§1) Overnight yeast cultures were diluted into the indicated media and grown to an OD600 of 0.2, at which point the AFs were added. Colony forming units (CFU) were measured by plating six serial dilutions onto YPD agar plates. Cells treated with MCZ were washed before serial dilution to stop growth inhibition associated with high concentrations of MCZ. CFU were counted after three days of incubation on agar plates. When indicated, thiourea (Fluka) was added 30 min prior to the addition of AFs. HPF (10 μM) (Invitrogen) and Mito Tracker (1 μM) (Invitrogen) dyes were added to PBS-washed cells at the indicated time points and incubated for 30 min prior to flow cytometry measurements, which were taken on the FACSCalibur (Becton-Dickinson). All experiments described in this section were conducted in 0.5 ml of SDC in 24-well plates incubated at 900 rpm and 37° C. for C. albicans and 30° C. and 300 rpm for S. cerevisiae. TUNEL assays were conducted as previously described (Ribeiro et al., 2006) and are described in detail in the TUNEL section of the Experimental Procedures.

[3] = tested on: S. cerevisiae; assay: Mitochondrial activity by MitoTracker Red fluorescence; conditions: drug added to glucose-incubated (SC, 2% glucose) S. cerevisiae
Description: It was next sought to assess the mitochondrial activity of AF-treated fungal cells. Yhe MitoTracker Red dye, which enters the mitochondrial matrix by utilizing the proton motive force and thus labels metabolically active mitochondria in viable cells was used (Arita et al., 2006; Tomas et al., 2011). Exponential phase S. cerevisiae were incubated in glucose-free synthetic complete (SC) media for 30 min and then switched to SC containing 2% glucose or non-fermentable acetate for 1.5 hours.
as §1

SMILES: C[C@@H]1[C@H](O)[C@@H](C)/C=C/C=C/C=C/C=C/C=C/C=C/C=C/[C@H](O[C@@H]2O[C@H](C)[C@@H](O)[C@H](N)[C@@H]2O)C[C@@H]2O[C@](O)(C[C@@H](O)C[C@@H](O)[C@H](O)CC[C@@H](O)C[C@@H](O)CC(=O)O[C@H]1C)C[C@H](O)[C@H]2C(=O)O [AMB, amphotericin B]
- additive resistance on deleting the remaining citrate synthases in the cit3 background ([1]; S. cerevisiae CIT1/CIT2 deletions in cit3 background): additive resistance
- CFU (24-well colony forming assay), AF susceptibility vs wildtype ([1]; S. cerevisiae PAB101, WT): Normal
- CFU (24-well colony forming assay), AF susceptibility vs wildtype ([1]; S. cerevisiae PAB102, HSP104 deletion): Normal
- CFU (24-well colony forming assay), AF susceptibility vs wildtype ([1]; S. cerevisiae PAB103, SDH2 deletion): Resistant (″Resistant″ or ″Sensitive″ indicate at least a 5-fold CFU difference from wildtype at the final time point)
- CFU (24-well colony forming assay), AF susceptibility vs wildtype ([1]; S. cerevisiae PAB104, FRE8 deletion): Resistant (″Resistant″ or ″Sensitive″ indicate at least a 5-fold CFU difference from wildtype at the final time point)
- CFU (24-well colony forming assay), AF susceptibility vs wildtype ([1]; S. cerevisiae PAB105, CHA4 deletion): Resistant (″Resistant″ or ″Sensitive″ indicate at least a 5-fold CFU difference from wildtype at the final time point)
- CFU (24-well colony forming assay), AF susceptibility vs wildtype ([1]; S. cerevisiae PAB106, FMS1 deletion): Resistant (″Resistant″ or ″Sensitive″ indicate at least a 5-fold CFU difference from wildtype at the final time point)
- CFU (24-well colony forming assay), AF susceptibility vs wildtype ([1]; S. cerevisiae PAB107, NDE1 deletion): Resistant (″Resistant″ or ″Sensitive″ indicate at least a 5-fold CFU difference from wildtype at the final time point)
- CFU (24-well colony forming assay), AF susceptibility vs wildtype ([1]; S. cerevisiae PAB108, ALD3 deletion): Normal
- CFU (24-well colony forming assay), AF susceptibility vs wildtype ([1]; S. cerevisiae PAB112, MNE1 deletion): Resistant (″Resistant″ or ″Sensitive″ indicate at least a 5-fold CFU difference from wildtype at the final time point)
- CFU (24-well colony forming assay), AF susceptibility vs wildtype ([1]; S. cerevisiae PAB113, FUM1 deletion): Resistant (″Resistant″ or ″Sensitive″ indicate at least a 5-fold CFU difference from wildtype at the final time point)
- CFU (24-well colony forming assay), AF susceptibility vs wildtype ([1]; S. cerevisiae PAB114, TPK2 deletion): Resistant (″Resistant″ or ″Sensitive″ indicate at least a 5-fold CFU difference from wildtype at the final time point)
- CFU (24-well colony forming assay), AF susceptibility vs wildtype ([1]; S. cerevisiae PAB116, ISU1 deletion): Normal
- CFU (24-well colony forming assay), AF susceptibility vs wildtype ([1]; S. cerevisiae PAB117, CYC7 deletion): Normal
- CFU (24-well colony forming assay), AF susceptibility vs wildtype ([1]; S. cerevisiae PAB119, CIT2 deletion): Resistant (″Resistant″ or ″Sensitive″ indicate at least a 5-fold CFU difference from wildtype at the final time point)
- CFU (24-well colony forming assay), AF susceptibility vs wildtype ([1]; S. cerevisiae PAB120, HSP30 deletion): Normal
- CFU (24-well colony forming assay), AF susceptibility vs wildtype ([1]; S. cerevisiae PAB121, SDH1 deletion): Resistant (″Resistant″ or ″Sensitive″ indicate at least a 5-fold CFU difference from wildtype at the final time point)
- CFU (24-well colony forming assay), AF susceptibility vs wildtype ([1]; S. cerevisiae PAB122, TPK3 deletion): Resistant (″Resistant″ or ″Sensitive″ indicate at least a 5-fold CFU difference from wildtype at the final time point)
- CFU (24-well colony forming assay), AF susceptibility vs wildtype ([1]; S. cerevisiae PAB123, ISU2 deletion): Normal
- CFU (24-well colony forming assay), AF susceptibility vs wildtype ([1]; S. cerevisiae PAB124, TPK1 deletion): Resistant (″Resistant″ or ″Sensitive″ indicate at least a 5-fold CFU difference from wildtype at the final time point)
- CFU (24-well colony forming assay), AF susceptibility vs wildtype ([1]; S. cerevisiae PAB132, CIT3 deletion): Resistant (″Resistant″ or ″Sensitive″ indicate at least a 5-fold CFU difference from wildtype at the final time point)
- CFU (24-well colony forming assay), AF susceptibility vs wildtype ([1]; S. cerevisiae PAB135, NDI1 deletion): Resistant (″Resistant″ or ″Sensitive″ indicate at least a 5-fold CFU difference from wildtype at the final time point)
- CFU (24-well colony forming assay), AF susceptibility vs wildtype ([1]; S. cerevisiae PAB145, CIT1 deletion): Resistant (″Resistant″ or ″Sensitive″ indicate at least a 5-fold CFU difference from wildtype at the final time point)
- CFU (24-well colony forming assay), AF susceptibility vs wildtype ([1]; S. cerevisiae PAB149, YAK1 deletion): Sensitive (″Resistant″ or ″Sensitive″ indicate at least a 5-fold CFU difference from wildtype at the final time point)
- CFU (24-well colony forming assay), AF susceptibility vs wildtype ([1]; S. cerevisiae PAB153, SHO1 deletion): Sensitive (″Resistant″ or ″Sensitive″ indicate at least a 5-fold CFU difference from wildtype at the final time point)
- CFU (24-well colony forming assay), AF susceptibility vs wildtype ([1]; S. cerevisiae PAB155, FBP1 deletion): Sensitive (″Resistant″ or ″Sensitive″ indicate at least a 5-fold CFU difference from wildtype at the final time point)
- CFU (24-well colony forming assay), AF susceptibility vs wildtype ([1]; S. cerevisiae PAB158, MSN4 deletion): Normal
- CFU (24-well colony forming assay), AF susceptibility vs wildtype ([1]; S. cerevisiae PAB161, MSN2 deletion): Normal
- CFU (24-well colony forming assay), AF susceptibility vs wildtype ([1]; S. cerevisiae PAB162, YAP1 deletion): Normal
- CFU (24-well colony forming assay), AF susceptibility vs wildtype ([1]; S. cerevisiae PAB163, CIN5 deletion): Normal
- CFU (24-well colony forming assay), AF susceptibility vs wildtype ([1]; S. cerevisiae PAB164, Pde2 deletion): Normal
- CFU (24-well colony forming assay), AF susceptibility vs wildtype ([1]; S. cerevisiae PAB165, USV1 deletion): Normal
- CFU (24-well colony forming assay), AF susceptibility vs wildtype ([1]; S. cerevisiae PAB166, CAD1 deletion): Normal
- CFU (24-well colony forming assay), AF susceptibility vs wildtype ([1]; S. cerevisiae PAB167, RIM101 deletion): Normal
- CFU (24-well colony forming assay), AF susceptibility vs wildtype ([1]; S. cerevisiae PAB168, RAS1 deletion): Resistant (″Resistant″ or ″Sensitive″ indicate at least a 5-fold CFU difference from wildtype at the final time point)
- CFU (24-well colony forming assay), AF susceptibility vs wildtype ([1]; S. cerevisiae PAB169, HYR1 deletion): Resistant (″Resistant″ or ″Sensitive″ indicate at least a 5-fold CFU difference from wildtype at the final time point)
- CFU (24-well colony forming assay), AF susceptibility vs wildtype ([1]; S. cerevisiae PAB170, CRZ1 deletion): Normal
- CFU (24-well colony forming assay), AF susceptibility vs wildtype ([1]; S. cerevisiae PAB171, RAS2 deletion): Resistant (″Resistant″ or ″Sensitive″ indicate at least a 5-fold CFU difference from wildtype at the final time point)
- CFU (24-well colony forming assay), AF susceptibility vs wildtype ([1]; S. cerevisiae PAB172, XBP1 deletion): Normal
- CFU (24-well colony forming assay), AF susceptibility vs wildtype ([1]; S. cerevisiae PAB173, SRV2 deletion): Normal
- CFU (24-well colony forming assay), AF susceptibility vs wildtype ([1]; S. cerevisiae PAB174, TPS3 deletion): Resistant (″Resistant″ or ″Sensitive″ indicate at least a 5-fold CFU difference from wildtype at the final time point)
- CFU (24-well colony forming assay), AF susceptibility vs wildtype ([1]; S. cerevisiae PAB175, TPS2 deletion): Sensitive (″Resistant″ or ″Sensitive″ indicate at least a 5-fold CFU difference from wildtype at the final time point)
- CFU (24-well colony forming assay), AF susceptibility vs wildtype ([1]; S. cerevisiae PAB177, SOD2 deletion): Normal
- CFU (24-well colony forming assay), AF susceptibility vs wildtype ([1]; S. cerevisiae PAB178, CTA1 deletion): Normal
- CFU (24-well colony forming assay), AF susceptibility vs wildtype ([1]; S. cerevisiae PAB179, CTT1 deletion): Normal
- CFU (24-well colony forming assay), AF susceptibility vs wildtype ([1]; S. cerevisiae PAB180, MET1 deletion): Normal
- CFU (24-well colony forming assay), AF susceptibility vs wildtype ([1]; S. cerevisiae PAB181, TVP18 deletion): Normal
- CFU (24-well colony forming assay), AF susceptibility vs wildtype ([1]; S. cerevisiae PAB182, PML39 deletion): Normal
- CFU (24-well colony forming assay), AF susceptibility vs wildtype ([1]; S. cerevisiae PAB183, VPS9 deletion): Normal
- higher drug concentration required by citrate synthase triple mutant to achieve the sensitivity of the single mutants ([1]; S. cerevisiae cit1 cit2 cit3 triple mutant, 3 hours of drug exposure): more than 8 fold
- reduction of killing at 3 hours by thiourea ([1]; S. cerevisiae, 50 mM thiourea for 30 minutes prior to the addition of AF drugs): ~15 fold
- susceptibility of DSBR mutants compared to wildtype [2]: particularly susceptible
- increase of MitoTracker fluorescence [3]: 60 fold
